Laboratory results published in patent publication US9200017B2, “Multimodal imaging of fibrin” (The General Hospital Corporation, priority 2009, dated 2015).

Assays:
Thrombus = assay: MR-PET imaging in a rabbit model of occlusive arterial thrombus; type: in vivo; settings: i.v., MR angiogram with gadofosveset
Description: The occlusive thrombus model was similar to the one described above. Briefly, a male New Zealand white rabbit (2.5 kg) was sedated with a mixture of ketamine and xylazine and anaesthetized with isoflurane (1-2% in 70% N2O and 30% O2) and body temperature was kept at 37.5° C. A day old autologous blood clot was injected into the right internal carotid artery (ICA). The femoral vein was cannulated for intravenous delivery of the imaging agents. Simultaneous PET and MR were acquired on a clinical 3T MRI-BrainPET scanner using a home-built receive surface coil and a CP transmit coil. After baseline MR scans were acquired, the compound 21 was administered at a dose of […]. The blood pool MR contrast agent gadofosveset was injected at a dose of 0.1 mmol Gd/kg to acquire an angiographic image.

[1] = molecular target: T1, fibrin (clotted fibrinogen from human plasma) (Homo sapiens, UniProt P02671+P02675+P02679); assay: Fibrin binding of Cu-64 labeled probes, dried fibrin plate, percentage bound; settings: dried fibrin wells, 37° C., unbound probe by well counting
T1 construct: thrombin cleaves fibrinopeptides on fibrinogen resulting in an end-to-end polymerization to give the polymer fibrin; Fibrinogen from human plasma (Calbiochem); purchased Calbiochem; host or cells: human plasma
T1 sequence (P02671 36-629 isoform P02671-2 limits assumed): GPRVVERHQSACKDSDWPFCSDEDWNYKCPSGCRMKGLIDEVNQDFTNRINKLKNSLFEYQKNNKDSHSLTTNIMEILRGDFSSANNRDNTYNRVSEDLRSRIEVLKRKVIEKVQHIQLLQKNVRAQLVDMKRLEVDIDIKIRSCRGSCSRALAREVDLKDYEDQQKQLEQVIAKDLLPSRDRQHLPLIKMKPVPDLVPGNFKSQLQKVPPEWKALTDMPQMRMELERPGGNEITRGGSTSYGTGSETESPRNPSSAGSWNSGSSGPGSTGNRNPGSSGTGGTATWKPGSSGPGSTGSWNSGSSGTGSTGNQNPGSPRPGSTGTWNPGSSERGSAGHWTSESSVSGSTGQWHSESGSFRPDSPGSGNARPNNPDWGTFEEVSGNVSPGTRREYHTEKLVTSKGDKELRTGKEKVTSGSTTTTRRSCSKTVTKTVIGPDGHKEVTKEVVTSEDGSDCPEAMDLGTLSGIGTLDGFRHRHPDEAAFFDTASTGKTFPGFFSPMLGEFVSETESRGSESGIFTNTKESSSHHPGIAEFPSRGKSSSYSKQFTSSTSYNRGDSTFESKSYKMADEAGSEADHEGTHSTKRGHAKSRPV
T1 sequence (P02675 45-491 limits assumed): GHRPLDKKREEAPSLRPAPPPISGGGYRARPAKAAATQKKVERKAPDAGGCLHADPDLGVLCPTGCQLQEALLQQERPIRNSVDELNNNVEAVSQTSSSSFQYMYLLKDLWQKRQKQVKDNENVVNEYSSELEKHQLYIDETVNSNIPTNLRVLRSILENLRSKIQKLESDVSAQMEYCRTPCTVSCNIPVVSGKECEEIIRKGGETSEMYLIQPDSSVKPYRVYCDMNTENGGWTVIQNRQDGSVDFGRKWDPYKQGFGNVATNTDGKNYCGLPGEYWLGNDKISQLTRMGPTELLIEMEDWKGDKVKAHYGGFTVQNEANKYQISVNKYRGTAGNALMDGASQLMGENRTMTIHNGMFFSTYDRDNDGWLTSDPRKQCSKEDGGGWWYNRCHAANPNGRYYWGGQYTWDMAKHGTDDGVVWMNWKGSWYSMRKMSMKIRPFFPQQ
T1 sequence (P02679 27-437 isoform P02679-2 limits assumed): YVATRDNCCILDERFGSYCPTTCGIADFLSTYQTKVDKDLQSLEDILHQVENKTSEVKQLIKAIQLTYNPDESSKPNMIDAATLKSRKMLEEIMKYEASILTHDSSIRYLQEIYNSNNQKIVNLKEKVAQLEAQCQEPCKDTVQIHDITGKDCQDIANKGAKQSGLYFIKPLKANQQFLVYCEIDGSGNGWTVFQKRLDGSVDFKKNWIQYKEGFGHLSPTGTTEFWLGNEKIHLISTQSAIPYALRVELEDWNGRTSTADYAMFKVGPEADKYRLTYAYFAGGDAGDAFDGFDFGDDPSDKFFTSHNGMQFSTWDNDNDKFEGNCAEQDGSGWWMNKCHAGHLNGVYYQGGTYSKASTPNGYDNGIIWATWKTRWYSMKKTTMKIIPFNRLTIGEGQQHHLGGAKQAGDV
Description: Fibrinogen from human plasma (Calbiochem) was dialyzed against 50 mM Tris, pH 7.4, 150 mM sodium chloride, 5 mM sodium citrate (TBS·citrate). The fibrinogen concentration was adjusted to 5 mg/mL and CaCl2 was added (7 mM). The fibrinogen solution (50 μL) was dispensed into the wells of a 96-well polystyrene microplate (Immulon-II). A solution (50 μL) of human thrombin (2 U/mL) in TBS was added to each well to clot the fibrinogen. The plates were incubated at 37° C. and evaporated to dryness overnight. The plates were sealed with tape and stored at −20° C. until use. The wells with dried fibrin were incubated at 37° C. with known concentrations of the probes. The concentration of the unbound probe was determined by well counting. The concentration of the bound probe=[total]−[unbound]. The percentage bound probe was given by [(bound probe)/total probe)]×100.

Which results are given for Gd3-EP-2104R-Cu [Compound 21]?
PET signal at occluded right internal carotid artery (Thrombus): hyperintense PET signal in the right internal carotid (ICA); % bound (percentage bound probe) [1]: 98.7%
